Data published in PMC12081876, “Identification of PTGR2 inhibitors as a new therapeutic strategy for diabetes and obesity” (EMBO Molecular Medicine, 2025).
Values joined by “and” are separate entries in the source; they are usually repeats but may differ in a detail not shown here. Equal values may be shown once.

Legend:
[1] = tested on: differentiated 3T3-L1 adipocytes; assay: Insulin-stimulated glucose uptake assay by (3H)2-deoxyglucose; type: cell-based, mouse; parameters: insulin-stimulated glucose uptake, Fig 1J replicates / Figure 5E raw value, insulin-stimulated glucose uptake (replicates): unit not given here
Experimental: The cell lines, which were tested for mycoplasma contamination and authenticated, were purchased from the Bioresource Collection and Research Center, Taiwan. All cells were cultured at 37 °C, 5% CO2 in a humidified incubator. HEK293T cells were maintained in DMEM (cat. no. SH30003.02, HyClone) supplemented with 10% fetal bovine serum (FBS) (cat. no. 04-001-1A, Biological Industries) and 1% antibiotic/antimycotic solution (cat. no. SV30079.01, HyClone). 3T3-L1 preadipocytes were maintained at ~70% confluence in DMEM with 10% calf serum (cat. no. 16170078, Gibco) and 1% antibiotic/antimycotic solution. For adipocyte differentiation, confluent 3T3-L1 cells (defined as day 0) were exposed to an induction medium containing 10% FBS, 1 μM dexamethasone (cat. no. D4902, Sigma-Aldrich), and 1 μg/ml insulin (Humulin R, Eli Lilly) in DMEM with or without 0.5 mM isobutyl-methylxanthine (cat. no. sc-201188A, Santa Cruz Biotechnology) as indicated. After two days, the medium was replaced with DMEM containing 10% FBS and 1 μg/ml insulin and was replenished every two days until assay.
Differentiated 3T3-L1 cells were starved with serum-free DMEM containing 0.2% BSA (cat. no. A9647, Sigma-Aldrich). Cells were rinsed twice with KRH buffer (137 mM NaCl, 4.7 mM KCl, 1.85 mM CaCl2, 1.3 mM MgSO4, 50 mM HEPES and 0.1% BSA, pH 7.4), and treated with or without […] insulin in the presence of 20 μM cytochalasin B (cat. no. 11328, Cayman Chemical), a GLUT inhibitor for measuring non-specific glucose uptake, for 30 min. Cells were then incubated with 0.5 μCi [^3H]-2-deoxy-D-Glucose (cat. no. NET328A001MC, PerkinElmer) and 0.1 μM 2-deoxy-D-Glucose (2DG) (cat. no. 14325, Cayman Chemical) for 5 min. Uptake of 2DG was terminated by rapidly removing medium and washing with ice-cold PBS three times. Cells were lysed with 0.1% SDS, and the radioactivity was measured using a liquid scintillation counter. Insulin-mediated glucose uptake was calculated by subtracting insulin-treated glucose uptake with basal glucose uptake.

[2] = tested on: HFHSD-fed obese C57BL6/J mice; assay: Body weight / diet-induced obesity in HFHSD-fed mice; type: in vivo, mouse; conditions: Figure 5J, 100 mg/kg/day, in g (unit assumed)
[3] = tested on: HFHSD-fed obese C57BL6/J mice; assay: Insulin tolerance test (ITT); type: in vivo, mouse; parameters: Figure 2I Average (glucose, ITT) / ITT / ITT glucose, Average / Blood glucose during insulin tolerance test (Figure 5M), Average: unit not given here; conditions: 100 mg/kg/day
Experimental: (§1) Glucose tolerance was evaluated by the oral (OGTT) and intraperitoneal glucose tolerance test (ipGTT) after a 6-h fast. For the OGTT, glucose water (1 mg/g) was given by oral gavage, and tail blood glucose was measured with a glucometer (ACCU-CHEK Performa, Roche) at 0, 15, 30, 45, 60, 90, and 120 min. For the ipGTT, tail blood glucose was measured at 0, 15, 30, 45, 60, 90, and 120 min after intraperitoneal injection of glucose water (1 mg/g). For the insulin tolerance test (ITT), mice were fasted for 4 h and then injected intraperitoneally with 1 U/kg of insulin (Humulin R, Eli Lilly). Tail blood glucose was measured at 0, 15, 30, 45, 60, 90, 120, and 180 min.

[4] = tested on: HFHSD-fed obese C57BL6/J mice; assay: Intraperitoneal glucose tolerance test (ipGTT); type: in vivo, mouse; parameters: Figure 2H Average (glucose, ipGTT) / ipGTT / ipGTT glucose, Average / Blood glucose during glucose tolerance test (Figure 5L), Average: unit not given here; conditions: 100 mg/kg/day
Experimental: as §1

CCCCCC(=O)CC[C@H]1[C@H](O)CC(=O)[C@@H]1C/C=C\CCCC(=O)O [13,14-dihydro-15-keto-PGE2]
insulin-stimulated glucose uptake, Fig 1J replicates ([1]; 13,14dh-15kPGE2 5): 2.459 and 1.953 and 1.121 and 1.067 | insulin-stimulated glucose uptake ([1]; differentiated 3T3-L1 adipocytes): showed little effect

Cc1[nH]c2nc(C(C)N3CCN(c4ccccc4)CC3)nn2c(=O)c1Cc1ccc(F)cc1 (stereo not shown) [BPRPT245]
Body weight, Average ([2]; week 0): 30.59 | Body weight, Average ([2]; week 1): 31.2 | Body weight, Average ([2]; week 2): 31.673 | Body weight, Average ([2]; week 3): 32.167 | Body weight, Average ([2]; week 4): 32.92 | Body weight, Average ([2]; week 5): 32.837 | Body weight, Average ([2]; week 6): 33.673 | Body weight, Average ([2]; week 7): 33.323 | Body weight, Average ([2]; week 8): 33.923 | Body weight, Average ([2]; week 9): 34.59 | Body weight, Average ([2]; week 10): 35.623 | Body weight, Average ([2]; week 11): 36.193 | Body weight, Average ([2]; week 12): 37.113 | Body weight, Average ([2]; week 13): 36.957 | Body weight, Average ([2]; week 14): 38.33 | Body weight, Average ([2]; week 15): 38.607 | Body weight, Average ([2]; week 16): 39.303 | Body weight, Average ([2]; week 17): 40.533 | Body weight, Average ([2]; week 18): 40.933 | Body weight, Average ([2]; week 19): 42.11 | Body weight, Average ([2]; week 20): 41.483 | Body weight, Average ([2]; week 21): 42.933 | Body weight, Average ([2]; week 22): 43.33 | Body weight, Average ([2]; week 23): 44.06 | Body weight, Average ([2]; week 24): 44.36 | Body weight, Average ([2]; week 25): 45.28 | Blood glucose during insulin tolerance test (Figure 5M), Average ([3]; time 0): 210.867 | Blood glucose during insulin tolerance test (Figure 5M), Average ([3]; time 15): 143.067 | Blood glucose during insulin tolerance test (Figure 5M), Average ([3]; time 30): 94.067 | Blood glucose during insulin tolerance test (Figure 5M), Average ([3]; time 45): 78.667 | Blood glucose during insulin tolerance test (Figure 5M), Average ([3]; time 60): 69.8 | Blood glucose during insulin tolerance test (Figure 5M), Average ([3]; time 90): 59.667 | Blood glucose during insulin tolerance test (Figure 5M), Average ([3]; time 120): 71.467 | Blood glucose during insulin tolerance test (Figure 5M), Average ([3]; time 180): 90.933 | Blood glucose during glucose tolerance test (Figure 5L), Average ([4]; time 0): 153.667 | Blood glucose during glucose tolerance test (Figure 5L), Average ([4]; time 15): 305 | Blood glucose during glucose tolerance test (Figure 5L), Average ([4]; time 30): 285.933 | Blood glucose during glucose tolerance test (Figure 5L), Average ([4]; time 45): 242.333 | Blood glucose during glucose tolerance test (Figure 5L), Average ([4]; time 60): 219.733 | Blood glucose during glucose tolerance test (Figure 5L), Average ([4]; time 90): 192.133 | Blood glucose during glucose tolerance test (Figure 5L), Average ([4]; time 120): 185.4
